Source: patent US20040033982A1, “Viral inhibition by n-docosanol” (priority 2001, published 2004)

Experiments:
Type in all cases: cell-based
HSV-1(KOS)gL86 = test: Entry of HSV-1(KOS)gL86 into HEp-2 cells (beta-galactosidase, OD600)
Description: After attachment of HEp2 cells to culture wells, n-docosanol-vehicle, vehicle alone, or no agent (control) was added. Five to six hours after infection, the cells were processed, X-gal was added, and the absorbance at 600 nm was determined.
Twenty-four hours before infection, cultured cells were seeded into 24-well (16-mm) plates at 2.5×10^6 cells/well in 0.5 ml cDMEM supplemented with 10% fetal bovine serum (FES). After cell attachment (4-6 h later) heparin, n-docosanol-surfactant, or surfactant alone was added to the cells in 0.5 ml DMEM/10% FES. The agents were dissolved in the medium at two times the desired final concentration. For infection, 0.7 ml of medium was removed from each well and 25 μl of virus suspension was added to the remaining 0.3 ml to give a virus dose of at least 20 p.f.u./cell The plates were rocked at 37° C. for 3 h and then put in a 37° C. […]
At 5-6 h after infection, the cells were fixed with PES containing 2% formaldehyde and 0.2% glutaraldehyde, washed, then permeabilized with 0.02% NP-40, 0.01% deoxycholate and 2 mM MgCl2. […] To quantify the amount of color in each well the glycerol was removed from all wells that were then washed 3× with distilled H2O. DMSO (0.6 ml) was added to solubilize the dye and, after transferring 100 μl of each sample well from the 24-well plate to a 96-well plate, the OD600 was recorded using a 96-well plate reader. […]

wild-type HSV-2 = test: Plaque formation by wild-type HSV-2 in Vero cells; conditions: FIG. 7, Panel A
Description: (§1) FIG. 7 depicts data showing that n-docosanol inhibits acyclovir-resistant HSV-2. Vero cells were cultured in 35-mm wells (6×10^5 cells per well) in medium alone (=none) or in the presence of the indicated concentration of acyclovir, n-docosanol-Pluronic F-68 suspension or control suspension (Pluronic F-68 only). The cultures were inoculated 24 hours later with 150 PFU of either wild-type HSV-2 or an acyclovir-resistant laboratory isolate from the wild-type HSV-2 that was plaque purified and passaged in 20 μg/ml acyclovir 44 hours later, the plates were incubated, fixed, stained, and scored for numbers of plaques. The data presented are means of plaques scored from duplicate cultures. The percent inhibition observed in cultures treated with acyclovir or n-docosanol relative to untreated control cultures is denoted in parentheses.

[1] = tested on: acyclovir-resistant HSV-2; test: Plaque formation by acyclovir-resistant HSV-2 in Vero cells; conditions: FIG. 7, Panel B
Description: as §1

HSV-I = test: Binding of [3H]HSV-I to Vero cells; conditions: virus at 2 p.f.u./cell; n-docosanol 15 mM
Text: Attachment of HSV-I to specific cell surface receptors is unaffected in n-docosanol-treated cells. Previous studies have verified that attachment of HSV-1 to specific cell surface receptors is unaffected in n-docosanol-treated cells. […] Heparin inhibited this interaction 96%.

Row | Molecule | inhibition of the beta-galactosidase signal (HSV-1(KOS)gL86) | inhibition of plaque formation (wild-type HSV-2) | inhibition of plaque formation [1] | concentration at which inhibition appeared to be complete (HSV-1(KOS)gL86; examined between 1 and 10 μg/ml) [µg/mL] | inhibition of [3H]HSV-I binding (HSV-I) [%]
1 | Nc1nc2c(ncn2COCCO)c(=O)[nH]1 [acyclovir, reference compound] | not inhibited | inhibit plaque formation by wild type HSV-2 equally | not inhibited | – | –
2 | Heparin [reference compound] | – | – | – | 6 | 96
